In publication PMC5004176, “The antifungal plant defensin AtPDF2.3 from Arabidopsis thaliana blocks potassium channels” (Scientific Reports, 2016):
Ends that are not written are not given here.

What was measured:
[1] = tested on: Saccharomyces cerevisiae BY4741 WT; experiment: Yeast growth inhibitory assay; format: cell-based; details: MM medium, ~10^6 cells/mL, 24 hours, OD490nm, mean ± SEM, n ≥ 3, read-out: IC50 (growth inhibition)
[2] = tested on: Verticillium dahliae; experiment: Fungal growth inhibitory assay; format: cell-based; details: half strength PDB, 10^4 spores/mL, 48 hours, determined microscopically, n ≥ 3; read-out: IC50 (growth inhibition)
[3] = tested on: Kv1.2 channels; experiment: Two-electrode voltage-clamp on Kv1.2 expressed in X. laevis oocytes; details: for inhibition of the potassium current: Kv1.2, n ≥ 5
Protocol: (§1) For the expression of the voltage-gated potassium channels (rKv1.1, rKv1.2, hKv1.3, rKv1.4, rKv1.5, rKv1.6, Shaker IR, hKv3.1, rKv4.3, and hERG) in Xenopus laevis oocytes, the linearized plasmids were transcribed using the T7 or SP6 mMESSAGE-mMACHINE transcription kit (Ambion). The harvesting of stage V–VI oocytes from an anaesthetized female X. laevis frog was previously described[59]. Oocytes were injected with 50 nL of cRNA at a concentration of 1 ng/nL using a micro-injector (Drummond Scientific, USA). The oocytes were incubated in a solution containing (in mM): NaCl, 96; KCl, 2; CaCl2, 1.8; MgCl2, 2 and HEPES, 5 (pH 7.4), supplemented with 50 mg/L gentamycin sulfate.
(§2) Two-electrode voltage-clamp recordings were performed at room temperature (18–22 °C) using a Geneclamp 500 amplifier (Molecular Devices, USA) controlled by a pClamp data acquisition system (Axon Instruments, USA). Whole cell currents from oocytes were recorded 1–4 days after injection. Bath solution composition was ND96 (in mM): NaCl, 96; KCl, 2; CaCl2, 1.8; MgCl2, 2 and HEPES, 5 (pH 7.4) or HK (in mM): NaCl, 2; KCl, 96; CaCl2, 1.8; MgCl2, 2 and HEPES, 5 (pH 7.4). Voltage and current electrodes were filled with 3 M KCl. Resistances of both electrodes were kept between 0.7 and 1.5 MΩ. The elicited currents were filtered at 0.5 kHz and sampled at 2 kHz (for potassium currents) or filtered at 2 kHz and sampled at 20 kHz (for sodium currents) using a four-pole low-pass Bessel filter. Leak subtraction was performed using a -P/4 protocol. Kv1.1–Kv1.6 and Shaker currents were evoked by 250 ms depolarizations to 0 mV followed by a 250 ms pulse to −50 mV, from a holding potential of −90 mV. Current traces of hERG channels were elicited by applying a +40 mV prepulse for 2 s followed by a step to −120 mV for 2 s. […] In order to investigate the current–voltage relationship, current traces were evoked by 10 mV depolarization steps from a holding potential of −90 mV. To assess the concentration dependency of the toxin induced inhibitory effects, a concentration–response curve was constructed, in which the percentage of current inhibition was plotted as a function of toxin concentration. Data were fitted with the Hill equation: y = 100/[1 + (IC50/[toxin])^h], were y is the amplitude of the toxin-induced effect, IC50 is the toxin concentration at half-maximal efficacy, [toxin] is the toxin concentration, and h is the Hill coefficient. GV curves were calculated from IV relationships as follows: gK = IK/(Em−EK) with EK = (RT/zF)ln[K #0]o/[K #0]i. In these equations gK represents the conductance, IK the potassium current, Em the membrane potential, EK the reversal potential, R the gas constant (8.31 J/K mol), T the temperature, z the charge of the ion (for K+ ions: z = 1), F the Faraday’s constant (96.500 C/mol), [K #0]o and [K #0]i respectively are the extracellular and intracellular K+ ion concentrations. The values of IK or gK were plotted as function of voltage and fitted using the Boltzmann equation: gK/gmax = [1 + exp(Vg−V)/k]−1, were gmax represents maximal gK, Vg is the voltage corresponding to half-maximal conductance, and k is the slope factor. Comparison of two sample means was made using a paired Student’s t test (P < 0.05). All data represent at least three independent experiments (n ≥ 3) and are presented as mean ± standard error.

[4] = tested on: plant pathogenic fungi; experiment: Fungal growth inhibitory assay, whole panel; format: cell-based; details: range over the fungal panel of Table 1, 48 hours; read-out: IC50 values against all plant pathogenic fungi tested (range)
[5] = tested on: hERG (Kv11.1); experiment: Two-electrode voltage-clamp on hERG expressed in X. laevis oocytes; details: 3 μM, n ≥ 3
Protocol: as §1
Two-electrode voltage-clamp recordings were performed at room temperature (18–22 °C) using a Geneclamp 500 amplifier (Molecular Devices, USA) controlled by a pClamp data acquisition system (Axon Instruments, USA). Whole cell currents from oocytes were recorded 1–4 days after injection. Bath solution composition was ND96 (in mM): NaCl, 96; KCl, 2; CaCl2, 1.8; MgCl2, 2 and HEPES, 5 (pH 7.4) or HK (in mM): NaCl, 2; KCl, 96; CaCl2, 1.8; MgCl2, 2 and HEPES, 5 (pH 7.4). Voltage and current electrodes were filled with 3 M KCl. Resistances of both electrodes were kept between 0.7 and 1.5 MΩ. […] GV curves were calculated from IV relationships as follows: gK = IK/(Em−EK) with EK = (RT/zF)ln[K #0]o/[K #0]i. […]

[6] = tested on: Saccharomyces cerevisiae BY4741 ∆hal5; experiment: Yeast growth inhibitory assay; format: cell-based; details: BY4741 ∆hal5, MM medium, 24 hours, OD490nm, mean ± SEM, n ≥ 3; read-out: IC50 (growth inhibition)
[7] = tested on: Fusarium graminearum PH-1; format: cell-based; details: read-out: IC50 (growth inhibition)
[8] = tested on: Saccharomyces cerevisiae BY4741 ∆prm6; experiment: Yeast growth inhibitory assay; format: cell-based; details: BY4741 ∆prm6, MM medium, 24 hours, OD490nm, mean ± SEM, n ≥ 3; read-out: IC50 (growth inhibition)
[9] = tested on: Kv1.6 channels; experiment: Two-electrode voltage-clamp on Kv1.6 expressed in X. laevis oocytes; details: n ≥ 3
Protocol: as §1, §2

[10] = tested on: Saccharomyces cerevisiae BY4741 ∆trk2; experiment: Yeast growth inhibitory assay; format: cell-based; details: BY4741 ∆trk2, MM medium, 24 hours, OD490nm, mean ± SEM, n ≥ 3; read-out: IC50 (growth inhibition)
[11] = tested on: Saccharomyces cerevisiae BY4743 ∆frq1; experiment: Yeast growth inhibitory assay; format: cell-based; details: BY4743 ∆frq1, MM medium, 24 hours, OD490nm, mean ± SEM, n ≥ 3; read-out: IC50 (growth inhibition)

In the case of “rAtPDF2.3: Arabidopsis thaliana plant defensin AtPDF2.3 produced recombinantly in Pichia pastoris (RTCESKSHRFKGPCVSTHNCANVCHNEGFGGGKCRGFRRRCYCTRHC; ends and bridges not checked; cysteine pairing not given here)”, the IC50 [1] is reported as 8.1 ± 0.9 µM, the IC50 [2] is reported as 4.4 ± 1.6 µM and the “inhibition of the potassium current” value ([3]; 2 μM, HK solution) is reported as 66 ± 4%. The “inhibition of the potassium current” value ([3]; 2 μM, ND96 solution) was 59 ± 3%, the “activity on Kv1.2 at single concentration” value ([3]; 3 μM, n ≥ 3) was “can block” and the “reversal potential EK after application of defensin” value ([3]; HK solution, 2 μM, Kv1.2, control −4 ± 1 mV, P > 0.05, n ≥ 4) was −2 ± 1 mV. The “V1/2 of gV curve in the presence of defensin” value ([3]; ND96, 2 μM, Kv1.2, control 8 ± 3 mV, n ≤ 4 as printed) was 5 ± 2 mV, the “reversibility of Kv1.2 block upon washout” value ([3]; current recovers quickly and completely upon washout (data not shown)) was “blocking is reversible” and the IC50 ([3]; read-out: IC50 for Kv1.2, two-electrode voltage-clamp, X. laevis oocytes, concentration-response curve fitted with Hill equation, mean ± standard error, n ≥ 3) was 1.3 ± 0.2 µM. For the same substance, the “voltage dependence of inhibition of Kv1.2 channels” value ([3]; test potentials from −30 to +30 mV) was “not voltage-dependent”, the IC50 [4] was 1 to 5.8 µM and the “activity on hERG (Kv11.1) at single concentration” value [5] was “no effect”. For the same substance, the IC50 [6] was 4 ± 0.4 µM, the IC50 [7] was 1.4 µM and the IC50 [8] was 7.6 ± 0.2 µM. For the same substance, the “activity on Kv1.6 at single concentration” value ([9]; 3 μM) was “can block”, the IC50 ([9]; read-out: IC50 for Kv1.6, two-electrode voltage-clamp, X. laevis oocytes, concentration-response curve fitted with Hill equation, mean ± standard error) was 0.978 ± 0.113 µM and the IC50 [10] was 7 ± 0.6 µM. For the same substance, the IC50 [11] was 3.1 ± 0.1 µM.
